According to patent publication US5977106A, “3,5-dioxo-(2H,4H)-1,2,4-triazine derivatives” (Pierre Fabre Medicament, priority 1994, dated 1999):
Where a name gives a salt, the structure may show the parent alone. Read-outs that look alike come from different tables or passages of the source.

Key:
5-HT1A receptor = biological target: T1, 5-HT1A receptor (Rattus norvegicus, UniProt P19327); experiment: biochemical; format: binding; conditions: rat cerebral cortex, [^3 H]8-OH-DPAT 0.2 nM, 23° C., 30 minutes, mean of 3 to 5 experiments; for Ki: read-out: pKi (Affinity for the 5-HT1A receptor) (converted)
T1 sequence (P19327 1-422): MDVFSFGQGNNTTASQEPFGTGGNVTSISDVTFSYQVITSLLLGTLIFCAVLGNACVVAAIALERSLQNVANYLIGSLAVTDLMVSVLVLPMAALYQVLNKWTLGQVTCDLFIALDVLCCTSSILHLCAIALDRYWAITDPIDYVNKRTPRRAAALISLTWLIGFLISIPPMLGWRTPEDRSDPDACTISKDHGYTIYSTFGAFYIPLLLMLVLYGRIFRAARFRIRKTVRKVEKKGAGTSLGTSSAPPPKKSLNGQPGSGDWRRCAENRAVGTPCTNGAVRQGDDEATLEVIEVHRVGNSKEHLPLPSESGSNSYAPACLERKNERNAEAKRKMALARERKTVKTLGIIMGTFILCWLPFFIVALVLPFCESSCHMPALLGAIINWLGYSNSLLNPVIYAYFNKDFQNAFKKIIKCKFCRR

[1] = biological target: T2, 5-HT1A type serotoninergic receptors (Rattus norvegicus, UniProt P19327); experiment: 5-HT syndrome in rats (FBP, LLR, FPT); format: in vivo; conditions: ip, male Sprague Dawley rats
T2 construct: carried out in male rats (Sprague Dawley); from tissue; host or cells: living male Sprague Dawley rats (whole animal)
T2 sequence (P19327 1-422): T1 sequence (P19327 1-422)
Method: The central activity of the compounds of the invention was evaluated for their capacity to cause the 5-HT syndrome, which is characterized by reciprocal fore-paw treading (FPT), lower-lip retraction (LLR) and flat body posture (FBP).
The experiments for the evaluation of the 5-HT syndrome are carried out in male rats (Sprague Dawley) according to the method described by F.C COLPAERT et al (Drug Dev. Res., 26, 21-48; 1992).

[2] = FBP, read-out: ED50 flat body posture (FBP), 5-HT syndrome
[3] = FPT, read-out: ED50 reciprocal fore-paw treading (FPT), 5-HT syndrome
[4] = LLR, read-out: ED50 lower-lip retraction (LLR), 5-HT syndrome

Molecule | Ki (5-HT1A receptor) [nM] | also measured
Cn1c(=O)cnn(CCCCN2CCN(c3ccc(Cl)c(Cl)c3)CC2)c1=O [Compound 21, 4-methyl-2-(4-(4-(3,4-dichloro-phenyl)piperazino)butyl)-3,5-dioxo-(2H,4H)-1,2,4-triazine] | 2.63 | 
Cn1c(=O)cnn(CCCCN2CCN(c3cccc(Cl)c3Cl)CC2)c1=O [Compound 22, 4-methyl-2-(4-(4-(2,3-dichloro-phenyl)piperazino)butyl)-3,5-dioxo-(2H,4H)-1,2,4-triazine] | 0.316 | 
Cn1c(=O)cnn(CCCCN2CCN(c3cccc(Cl)c3)CC2)c1=O [Compound 4, 4-methyl-2-(4-(4-(3-chlorophenyl)piperazino)butyl)-3,5-dioxo-(2H,4H)-1,2,4-triazine] | 0.269 | 
4-methyl-2-(4-(2,3-dihydro-1,4-dioxino-[2,3-b]-pyridin-2-ylmethylamino)butyl)-3,5-dioxo-(2H,4H)-1,2,4-triazine fumarate [Compound 16] |  | pKi (Affinity for the 5-HT1A receptor) (5-HT1A receptor): 9.36
Cn1c(=O)cnn(CCCCN2CCN(c3ncccn3)CC2)c1=O [Compound 9, 4-methyl-2-(4-(4-pyrimidinyl-2)piperazino)butyl-3,5-dioxo-(2H,4H)-1,2,4-triazine] | 4.57 | ED50 [1, 2]: 0.08 mg/kg; ED50 [1, 3]: 0.31 mg/kg; ED50 [1, 4]: 0.08 mg/kg
Cc1nn(CCCCN2CCN(c3cccc(C(F)(F)F)c3)CC2)c(=O)n(C)c1=O [Compound 13, 4,6-dimethyl-2-(4-(4-(3-trifluoromethylphenyl)piperazino)butyl-3,5-dioxo-(2H,4H)-1,2,4-triazine hydrochloride] | 2.63 | 
COc1ccc2cccc(N3CCN(CCCCn4ncc(=O)n(C)c4=O)CC3)c2c1 [Compound 10, 4-methyl-2-(4-(4-(7-methoxynaphthalene-1-yl)piperazino)butyl-3,5-dioxo-(2H,4H)-1,2,4-triazine fumarate] | 0.0324 | ED50 [1, 2]: 0.02 mg/kg; ED50 [1, 3]: 0.02 mg/kg; ED50 [1, 4]: 0.005 mg/kg
4-methyl-2-(4-(4-(4,6-dimethyl-2-pyrimidinyl)piperazino)butyl)-3,5-dioxo-(2H,4H)-1,2,4-triazine [Compound 27] |  | pKi (Affinity for the 5-HT1A receptor) (5-HT1A receptor): 9.23
Cn1c(=O)cnn(CCCCNCC2COc3ccccc3O2)c1=O (stereo not drawn) [Compound 14, 4-methyl-2-(4-(1,4-benzodioxane-2-ylmethylamino)butyl)-3,5-dioxo-(2H,4H)-1,2,4-triazine] | 0.269 | 
Cc1nn(CCCCN2CCN(c3cccc(C(F)(F)F)c3)CC2)c(=O)[nH]c1=O [Compound 12, 6-methyl-2-(4-(4-(3-trifluoromethylphenyl)piperazino)butyl)-3,5-dioxo-(2H,4H)-1,2,4-triazine] | 6.46 | 
O=C1CC2(CCCC2)CC(=O)N1CCCCN1CCN(c2ncccn2)CC1 [Buspirone, reference compound] |  | ED50 [1, 3]: > 40 mg/kg
CN(CCCCn1ncc(=O)n(C)c1=O)CC1COc2ccccc2O1 (stereo not drawn) [Compound 15, 4-methyl-2-(4-(N-methyl, 1,4-benzodioxan-2-ylmethylamino)butyl)-3,5-dioxo-(2H,4H)-1,2,4-triazine fumarate] | 2.82 | 
O=c1cnn(CCCCN2CCN(c3cccc(C(F)(F)F)c3)CC2)c(=O)[nH]1 [Compound 1, 2-[4-(4-(3-trifluoromethylphenyl)piperazino)butyl]-3,5-dioxo-(2H,4H)-1,2,4-triazine hydrochloride] | 0.55 | 
COc1ccccc1N1CCN(CCCCn2ncc(=O)n(C)c2=O)CC1 [Compound 11] | 0.132 | 
Cl.Cn1c(=O)cnn(CCCCN2CCN(c3cccc(C(F)(F)F)c3)CC2)c1=O [Compound 3, 4-methyl-2-(4-(4-(3-trifluoromethylphenyl)piperazino)butyl)-3,5-dioxo-(2H,4H)-1,2,4-triazine hydrochloride] | 0.24 | ED50 [1, 2]: 0.31 mg/kg; ED50 [1, 3]: 0.31 mg/kg; ED50 [1, 4]: 0.08 mg/kg

More lines, main results first:

Ki (5-HT1A receptor) [nM] | Molecule | also measured
0.794 | Cn1c(=O)cnn(CCCCN2CCN(c3nccc(Cl)n3)CC2)c1=O [Compound 24] | 
3.31 | Cn1c(=O)cnn(CCCCN2CCN(c3ncccn3)CC2)c1=O [Compound 30, 4-methyl-2-(4-(4-(2-pyrimidinyl)piperazino)butyl)-3,5-dioxo-(2H,4H)-1,2,4-triazine fumarate] | 
0.851 | COc1ccnc(N2CCN(CCCCn3ncc(=O)n(C)c3=O)CC2)n1 [Compound 28, 4-methyl-2-(4-(4-(4-methoxy-2-pyrimidinyl)piperazino)butyl)-3,5-dioxo-(2H,4H)-1,2,4-triazine] | 
0.646 | Cc1cc(C)nc(N2CCN(CCCCn3ncc(=O)n(C)c3=O)CC2)n1 [Compound 26, 4-methyl-2-(4-(4-(4,6-dimethyl-2-pyrimidinyl)piperazino)butyl)-3,5-dioxo-(2H,4H)-1,2,4-triazine] | 
0.912 | Cn1c(=O)cnn(CCCCN2CCN(c3cc(Cl)cc(Cl)c3)CC2)c1=O [Compound 23, 4-methyl-2-(4-(4-(3,5-dichloro-phenyl)piperazino)butyl)-3,5-dioxo-(2H,4H)-1,2,4-triazine] | 
0.724 | Cc1ccnc(N2CCN(CCCCn3ncc(=O)n(C)c3=O)CC2)n1 [Compound 25] | 
